According to patent publication US9481676B2, “Azepino[4,5-B]indoles and methods of use” (Medivation Technologies, Inc., priority 2008, dated 2016):

Experiments:
[1] = molecular target: T1, human recombinant histamine H2 receptor (Homo sapiens, UniProt P25021); test: Histamine H2 radioligand binding ([125I]Aminopotentidine); conditions: compound at 1 μM; read-out: Histamine Binding (1 μM) H2, percent inhibition of specific binding
T1 construct: expressed in transfected cells; host or cells: CHO-K1 cells
T1 sequence (P25021 whole entry): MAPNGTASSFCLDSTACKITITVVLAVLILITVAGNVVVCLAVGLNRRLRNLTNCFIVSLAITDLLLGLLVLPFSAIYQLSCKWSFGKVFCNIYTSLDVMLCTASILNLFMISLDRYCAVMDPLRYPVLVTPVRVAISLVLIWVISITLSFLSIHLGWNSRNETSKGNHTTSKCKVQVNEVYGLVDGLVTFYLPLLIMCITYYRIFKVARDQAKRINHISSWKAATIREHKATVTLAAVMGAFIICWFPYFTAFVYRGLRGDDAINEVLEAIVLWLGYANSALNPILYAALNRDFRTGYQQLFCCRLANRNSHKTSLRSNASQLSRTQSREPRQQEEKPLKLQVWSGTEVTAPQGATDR
In short: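 Membranes from CHO-K1 cells expressing recombinant human H2 receptor, in 50 mM phosphate buffer pH 7.4, incubated with 0.1 nM [125I]aminopotentidine for 120 min at 25 °C; nonspecific binding defined with 3 μM tiotidine.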

[2] = molecular target: T2, human recombinant adrenergic α1D receptor (Homo sapiens, UniProt P25100); test: Adrenergic alpha1D radioligand binding ([3H]Prozosin); conditions: compound at 1 μM; read-out: Adrenergic (1 μM) α1D, percent inhibition of specific binding
T2 construct: expressed in transfected cells; host or cells: HEK-293 cells
T2 sequence (P25100 1-572): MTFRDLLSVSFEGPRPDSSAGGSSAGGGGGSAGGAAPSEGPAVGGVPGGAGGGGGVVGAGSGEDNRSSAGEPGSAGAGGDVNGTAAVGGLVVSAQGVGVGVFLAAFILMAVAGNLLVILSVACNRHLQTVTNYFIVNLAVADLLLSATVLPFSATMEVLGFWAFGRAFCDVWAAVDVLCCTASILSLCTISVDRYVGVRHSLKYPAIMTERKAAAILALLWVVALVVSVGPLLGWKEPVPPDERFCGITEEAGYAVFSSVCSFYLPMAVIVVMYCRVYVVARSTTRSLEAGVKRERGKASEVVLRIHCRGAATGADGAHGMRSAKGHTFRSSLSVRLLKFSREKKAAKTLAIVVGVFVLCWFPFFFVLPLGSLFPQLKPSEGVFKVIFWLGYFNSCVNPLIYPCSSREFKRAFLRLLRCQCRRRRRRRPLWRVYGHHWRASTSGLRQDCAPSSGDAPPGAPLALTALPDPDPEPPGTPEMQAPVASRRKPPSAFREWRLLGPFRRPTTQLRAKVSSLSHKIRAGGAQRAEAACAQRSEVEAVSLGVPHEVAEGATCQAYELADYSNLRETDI
Experimental: To evaluate in radioligand binding assays the activity of compounds of the invention, human recombinant adrenergic α1D receptor expressed in human embryonic kidney (HEK-293) cells (Kenny, B. A. et al. Br. J. Pharmacol. 115(6):981, 1995) in a 50 mM Tris-HCl buffer, pH 7.4, was used. Compounds of invention were incubated with 0.6 nM [^3H]Prozosin for 60 min. at 25° C. Non-specific binding was estimated in the presence of 10 μM phentolamine. Receptor proteins were filtered and washed, the filters were then counted to determine [^3H]Prozosin specifically bound. Compounds were screened at 1 μM or lower, using 1% DMSO as vehicle. Biochemical assay results are presented as the percent inhibition of specific binding in Table 5.

[3] = molecular target: T3, human recombinant serotonin (5-Hydroxytryptamine) 5-HT2A receptor (Homo sapiens, UniProt P28223); test: Serotonin 5-HT2A radioligand binding ([3H]Ketanserin); conditions: compound at 1 μM; read-out: Serotonin (1 μM) 5-HT2A, percent inhibition of specific binding
T3 construct: expressed in transfected cells; host or cells: CHO-K1 cells
T3 sequence (P28223 whole entry): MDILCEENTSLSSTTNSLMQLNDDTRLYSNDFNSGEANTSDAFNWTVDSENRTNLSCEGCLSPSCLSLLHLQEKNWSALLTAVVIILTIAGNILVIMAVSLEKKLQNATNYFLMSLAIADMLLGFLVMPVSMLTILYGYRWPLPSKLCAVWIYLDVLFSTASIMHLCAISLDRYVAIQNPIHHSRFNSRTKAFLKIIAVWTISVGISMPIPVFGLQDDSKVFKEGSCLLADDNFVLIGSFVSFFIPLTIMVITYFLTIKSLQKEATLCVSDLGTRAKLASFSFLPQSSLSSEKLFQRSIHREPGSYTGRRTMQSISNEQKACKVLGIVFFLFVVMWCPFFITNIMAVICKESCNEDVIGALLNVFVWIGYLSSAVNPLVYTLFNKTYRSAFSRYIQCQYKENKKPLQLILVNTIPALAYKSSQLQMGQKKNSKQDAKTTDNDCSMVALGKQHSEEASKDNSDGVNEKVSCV
In short: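 Percent inhibition of specific [3H]ketanserin (0.5 nM) binding, filtration read-out, with compounds at ≤1 μM (1% DMSO vehicle). Receptor source: recombinant human 5-HT2A in CHO-K1 cells, 50 mM Tris-HCl pH 7.4, 60 min, 25 °C; 1 μM mianserin gives nonspecific binding.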

[4] = molecular target: T4, human recombinant serotonin (5-Hydroxytryptamine) 5-HT6 receptor (Homo sapiens, UniProt P50406); test: Serotonin 5-HT6 radioligand binding ([3H]LSD); conditions: compound at 1 μM; read-out: Serotonin (1 μM) 5-HT6, percent inhibition of specific binding
T4 construct: expressed in transfected cells; host or cells: human HeLa cells
T4 sequence (P50406 whole entry): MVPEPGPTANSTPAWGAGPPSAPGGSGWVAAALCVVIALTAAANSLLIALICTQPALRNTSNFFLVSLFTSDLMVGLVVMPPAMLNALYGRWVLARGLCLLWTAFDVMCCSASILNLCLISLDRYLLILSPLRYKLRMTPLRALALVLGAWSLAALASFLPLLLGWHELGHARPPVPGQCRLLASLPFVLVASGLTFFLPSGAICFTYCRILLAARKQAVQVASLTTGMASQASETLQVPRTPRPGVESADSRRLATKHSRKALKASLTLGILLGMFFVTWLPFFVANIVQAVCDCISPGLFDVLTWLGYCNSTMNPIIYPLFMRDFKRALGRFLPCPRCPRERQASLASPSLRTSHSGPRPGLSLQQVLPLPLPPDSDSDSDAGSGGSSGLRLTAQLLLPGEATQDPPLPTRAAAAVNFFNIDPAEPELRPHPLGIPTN
In short: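 Human recombinant 5-HT6 receptor from HeLa cells incubated with 1.5 nM [3H]LSD for 120 min at 37° C in 50 mM Tris-HCl pH 7.4, 150 mM NaCl, 2 mM ascorbic acid, 0.001% BSA. Nonspecific binding defined with 5 μM serotonin; bound ligand counted after filtration.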

Compound	inhibition at 1 µM [1]	inhibition at 1 µM [2]	inhibition at 1 µM [3]	inhibition at 1 µM [4]
CN1CCc2c(n(CC(O)c3ccccc3)c3ccc(Cl)cc23)CC1 (centres unmarked) [Compound No. 24, 2-(9-chloro-2,3,4,5-tetrahydro-3-methylazepino[4,5-b]indol-6(1H)-yl)-1-phenylethanol]	58%	85%	98%	99%
Cc1ccc2c(c1)c1c(n2CC(O)c2ccccc2)CCN(C)CC1 (centres unmarked) [Compound No. 25, 2-(2,3,4,5-tetrahydro-3,9-dimethylazepino[4,5-b]indol-6(1H)-yl)-1-phenylethanol]	47%	96%	97%	93%
Cc1ccc(C(O)Cn2c3c(c4cc(Cl)ccc42)CCN(C)CC3)cc1 (centres unmarked) [Compound No. 26, 2-(9-chloro-2,3,4,5-tetrahydro-3-methylazepino[4,5-b]indol-6(1H)-yl)-1-p-tolylethanol]	84%	94%	100%	87%
Cc1ccc(C(O)Cn2c3c(c4cc(C)ccc42)CCN(C)CC3)cc1 (centres unmarked) [Compound No. 27, 2-(2,3,4,5-tetrahydro-3,9-dimethylazepino[4,5-b]indol-6(1H)-yl)-1-p-tolylethanol]	78%	95%	99%	92%
Cc1ccc2c(c1)c1c(n2CCc2ccc(Cl)cc2)CCN(C)CC1 [Compound No. 28, 6-(4-chlorophenethyl)-1,2,3,4,5,6-hexahydro-3,9-dimethylazepino[4,5-b]indole]	97%	94%	100%	95%
CN1CCc2c(n(CCc3ccccc3Cl)c3ccc(Cl)cc23)CC1 [Compound No. 29, 6-(2-chlorophenethyl)-9-chloro-1,2,3,4,5,6-hexahydro-3-methylazepino[4,5-b]indole]	105%	71%	100%	103%
CN1CCc2c(n(CCc3ccc(Cl)cc3)c3ccc(Cl)cc23)CC1 [Compound No. 30, 6-(4-chlorophenethyl)-9-chloro-1,2,3,4,5,6-hexahydro-3-methylazepino[4,5-b]indole]	97%	89%	100%	86%
CC(C)NC(=O)Cn1c2c(c3cc(Cl)ccc31)CCN(C)CC2 [Compound No. 31, 2-(9-chloro-2,3,4,5-tetrahydro-3-methylazepino[4,5-b]indol-6(1H)-yl)-N-isopropylacetamide]	-10%	6%	43%	2%
Cc1ccc2c(c1)c1c(n2CC(=O)N2CCCCC2)CCN(C)CC1 [Compound No. 32, 2-(2,3,4,5-tetrahydro-3,9-dimethylazepino[4,5-b]indol-6(1H)-yl)-1-(piperidin-1-yl)ethanone]	-5%	4%	60%	4%
C/C(=C\n1c2c(c3cc(C)ccc31)CCN(C)CC2)c1ccc(Cl)cc1 [Compound No. 33, 6-((E)-2-(4-chlorophenyl)prop-1-enyl)-1,2,3,4,5,6-hexahydro-3,9-dimethylazepino[4,5-b]indole]	101%	99%	100%	98%
C/C(=C\n1c2c(c3cc(C)ccc31)CCN(C)CC2)c1ccc(F)cc1 [Compound No. 34, 6-((E)-2-(4-fluorophenyl)prop-1-enyl)-1,2,3,4,5,6-hexahydro-3,9-dimethylazepino[4,5-b]indole]	103%	100%	98%	103%
